Here are results for three compounds from patent publication EP3498270A1, “SLOW RELEASE FORMULATIONS OF CELL CYCLE REGULATORS AND ANTI-CANCER AGENTS FOR LOCAL TREATMENT OF SOLID CANCER” (Urogen Pharma Ltd., priority 2017, dated 2019).

A word on the viability: it is a read-out of living cells in per cent, often relative to untreated cells.

Where two headings read alike, the source gives them in different places.

Data set [1] deals with RT-4 cells. In words: Cell cytotoxicity / apoptosis (Annexin V FITC and PI staining, flow cytometry). The settings on record: 1mM HU 20 hours, wash; for late apoptosis: after 2 hours Gem 5µM 8 hours, 72 hours from HU washes; for percentages of apoptotic cells: after 2 hours 10µM MMC 8 hours, 48 hours after HU withdrawal. Format: cell-based, human. The method, then: After 24 hours to 5 days from HU washes, cells were stained with Annexin V FITC and PI for identifying apoptotic cells according to standard protocols.
On the technique in general: A flow cytometer gives signals particle by particle.

In data set [2] the test system is UMUC-3 cells. In words: XTT cell viability assay. Format: cell-based, human. The following applies: for viability at 1000 µM / EC50: Homo sapiens. How it is done:
Cells were treated with 0-16mM HU/ Control (DMSO or RPMI medium only) for up to 20 hours. […] XTT assay for cytotoxicity was then performed and plates were analyzed in an ELISA reader at wave length of 490nm.
The methods used were as described in the other examples. Briefly, UMUC-3 cells were cultured in 96 well microculture plates. Cells were pretreated with 1mM HU (or DMSO- vehicle control) for 2 hours. […] The percentage of viable cells presented in the figures and table was calculated from untreated cells with viability of 100%.
(Tetrazolium dyes change colour on reduction, which living cells bring about.)

Data set [3] has as its system UMUC-3 cells. In words: Cell cycle distribution (PI staining, flow cytometry). Format: cell-based, human. The method, then:
(§1) A Cyan Flow cytometer was used for determining DNA content and cell cycle distribution of UMUC-3 and RT-4 cells. Cells were seeded in 6 well plates (10^6 cells/well) and incubated overnight. Cells were then cultured with cell cycle modulator (0.1-15mM HU or 0.25µM PD0332991) or with DMSO (vehicle control) for up to 20 hours (HU) or 24 hours (PD0332991). Then, the HU, PD0332991 (or DMSO) was washed and replaced by fresh media and cells were fixed at different time points following washes. The fixation was done by a fixation buffer that purchased from ENCO (Cayman). Minimum 2 hours after the fixation, cells were washed and labeled with propidium iodide (PI) for 15 min in the dark. Cells were analyzed by flow cytometry (PI staining was detected in FL3, […] laser).
(§2) Unless otherwise indicated, methods were as described in Example 1. In order to investigate the influence of HU on cell cycle distribution in bladder cancer cell lines, UMUC-3 and RT-4 cells were treated with 1mM HU (or DMSO for vehicle control) for 20 hours. Cell cycle distribution was observed immediately after HU exposure and 2, 4, 6, 8, and 10 hours following HU withdrawal.

The test system of data set [4] is RT-4 cells. The data set is described as above. Format: cell-based, human. The following applies: 1mM HU for 20 hours, 4 hours from HU withdrawal. How it is done:
as §1, §2

Data set [5] has as its system UMUC-3 cells. In words: Cell cytotoxicity / apoptosis (Annexin V FITC and PI staining, flow cytometry). The following applies: 1mM HU 20 hours, wash, after 2 hours 10µM MMC 8 hours; 48 hours after HU withdrawal.
The subject of data set [6] is RT-4 cells. Briefly: XTT cell viability assay. Format: cell-based. The following applies: Homo sapiens, RT-4, read-out: MMC EC50 concentration value.

In the data set on RT-4 cells [1], `Nc1ccn([C@@H]2O[C@H](CO)[C@@H](O)C2(F)F)c(=O)n1` [Gem, Gemcitabine] displayed a late apoptosis of 22.2%. Further, the viability with UMUC-3 cells [2] (1mM HU 20 hours, wash, after 2 hours Gem (EC50) 8 hours) is 50.9%.
Consider `NC(=O)NO` [HU, Hydroxyurea], for which the “percentage of cells at the S phase” value in the data set on UMUC-3 cells [3] (1mM HU for 20 hours, 4 hours from HU withdrawal) is listed as 57.0%; with RT-4 cells [4] it was 48.6%. The “increase in S phase accumulation” value was “approximately 3 fold” in the data set with UMUC-3 cells [3] (1mM HU for 20 hours, versus DMSO control, 4 hours from HU withdrawal) and “approximately 6 fold” in the data set on RT-4 cells [4] (versus DMSO control). Moreover, the S phase accumulation result with UMUC-3 cells [3] (HU 0.5 to 4mM for 20 hours, 6 hours after the HU wash) was “greater than 50%”. Also, the “influence on cell cycle distribution” value in the data set on UMUC-3 cells [3] (HU concentrations lower than 0.1mM) was “no significant influence”. The figures for the “percentages of apoptotic cells” value in the data set on RT-4 cells [1] and in the data set with UMUC-3 cells [5] were 4.8% and 8.1%, respectively. In the data set with RT-4 cells [1], this compound registered a late apoptosis of 5.9%. Besides, the viability at 1000 µM with UMUC-3 cells [2] (UMUC3, 1mM HU 20 hours, wash, after 2 hours Gem (EC50) 8 hours) turned out to be 71.3%; in the data set with UMUC-3 cells [2] (UMUC3, short exposure: 1mM HU 2 hours, 2 hours wash, 20µM MMC 2 hours, analysed after 48 hours) it was 86.1%.
Consider `CO[C@@]12[C@H](COC(N)=O)C3=C(C(=O)C(C)=C(N)C3=O)N1C[C@@H]1N[C@@H]12` [MMC, Mitomycin C], for which the “percentages of apoptotic cells” value with RT-4 cells [1] stood at 13.4%; with UMUC-3 cells [5], 21.4%. For the same compound, the EC50 in the data set with UMUC-3 cells [2] (UMUC3, 2 h, read-out: MMC EC50 value) was 20 µM; with UMUC-3 cells [2] (UMUC3, read-out: MMC EC50 concentration value) it was 10 µM; with RT-4 cells [6], 5 to 20 µM.
